The source of these data is PMC8773213, “In Vitro Anticancer Activity and Mechanism of Action of an Aziridinyl Galactopyranoside” (Biomedicines, 2021).

For data set [1], the system named is UV5 cells (mutated in ERCC2 (XPD), NER deficient). Briefly: MTT cell viability assay, UV5 cells. It is filed as cell-based, Chinese hamster. Particulars: Cricetulus griseus, 24 h exposure, then 48 h in drug-free medium, read-out: IC50 (means ± SEM), UV5 cells. The protocol:
(§1) Exponentially growing cells were seeded in 96-well plates and allowed to attach and grow for 24 h. The cells were then treated with increasing concentrations of the tested drugs. At the end of the treatment period, cell viability was measured with the MTT assay or the resazurin assay, two widely used techniques.
(§2) In the case of the MTT assay, this technique detects viable cells using the ability of these cells to reduce the yellow tetrazolium MTT to an insoluble colored formazan product. Subsequently, this product was solubilized and analyzed by spectrophotometry. Dead cells cannot reduce the MTT into the colored formazan product. Briefly, 24 h after plating, cells were treated with the tested compounds for 48 h; except in experiments with DNA repair-proficient and -deficient cell lines, in which cells were only exposed for 24 h to drugs and allowed to grow for an additional 48 h in drug-free medium to allow them to repair possible DNA damage induced by the tested drugs. […] Finally, plates were incubated overnight at 37 °C and optical densities were measured at 540 nm using an absorbance spectrophotometer microplate reader.
(§3) In both assays, cell viability was expressed as percentage compared to untreated cells. Results were expressed as the means ± standard error of the mean (SEM). […]

Data set [2] relates to AA8 cells. Nature of the data set: Comet assay (DNA damage). The data set is classed as cell-based, Chinese hamster. Particulars: 4 h. From the text: The single cell gel electrophoresis assay, also known as comet assay, is a widely used technique for the study of levels of damage in cellular DNA. In this assay, individual cells embedded in agarose are lysed, electrophoresed, stained with a fluorescent dye and examined under an epifluorescence microscope. […] The quantity of DNA present in the tail is indicative of DNA damage. This assay has been described in detail by Singh et al.. We followed this protocol with minor modifications previously described. Briefly, standard slides were immersed in 1% normal melting agarose at 55 °C, left to allow the agarose to solidify and kept at 4 °C until use. Cells were seeded in 6-well plates, allowed to grow for 24 h and then cells were exposed to AzGalp or CTP (positive control) for 4 h. At the end of the treatment, cells were harvested by trypsinization, washed with PBS and resuspended in PBS at a concentration of approximately 1 million cells/mL; 10 µL cell suspension was mixed with 85 μL of low-melting agarose (LMA) at 37 °C and the mixture was quickly added to the slides with the first layer of agarose, spread using a coverslip and kept at 4 °C for 8 min to allow the LMA to solidify. The coverslips were then removed and another layer of 100 μL of LMA at 37 °C was added, covered with a coverslip and allowed to solidify at 4 °C for 8 min. After removing the coverslips, the slides were incubated in the dark for 1 h at 4 °C in a lysis buffer (pH 10.0) containing 0.25 M NaOH, 10% DMSO, 1% Triton X-100, 10 mM Tris-HCl, 100 mM Na2-EDTA and 2.5 M NaCl. Next, alkaline denaturation with electrophoretic buffer (300 mM NaOH and 1 mM Na2-EDTA) was carried out in an electrophoresis chamber for 20 min and then electrophoresis was performed at 1 V/cm for 20 min. […] DNA damage levels were quantified for each cell and expressed as percent of DNA in the tail and as the tail moment (defined as the product of the tail length and the fraction of total DNA in the tail). The results were averaged from two independent experiments and expressed as mean ± SEM.

The test system of data set [3] is A549 lung cancer cells. Briefly: MTT cytotoxicity of combinations, A549. The data set is classed as cell-based. Particulars: 48 h. On the procedure:
as §1, §2, §3

For data set [4], the system named is VH10 (Human skin non-malignant cells). Nature of the data set: Resazurin cell viability assay, VH10. The data set is classed as cell-based. The note with it: 72 h, read-out: IC50 (Mean ± SEM, µM), VH10. On the procedure:
as §1
(§4) The resazurin assay is a redox-based colorimetric/fluorometric technique based on the ability of viable cells to reduce the blue compound resazurin into the pink, fluorescent and soluble product resorufin. The amount of resorufin produced is generally proportional to the number of living cells. In this assay, 24 h after seeding, cells were exposed to the tested drugs for 72 h. Then 100 μL resazurin in medium was added to each well (final concentration of 10 μg/mL) and, one hour later the fluorescence intensity was measured at 530/590 nm (excitation/emission) using a fluorescence microplate reader.
(§5) In both assays, cell viability was expressed as percentage compared to untreated cells. Results were expressed as the means ± standard error of the mean (SEM). All data are from at least three independent experiments.
For orientation: Alamar Blue is a resazurin reagent that responds to reducing activity.

The subject of data set [5] is HeLa (Human cervical carcinoma cells). Briefly: Resazurin cell viability assay, HeLa. Particulars: 72 h, read-out: IC50 (Mean ± SEM, µM), HeLa. The data set is classed as cell-based. The protocol: as §1, §4, §5
Data set [6] has as its system HL-60 (Human acute promyelocytic leukemia cells). Briefly: Resazurin cell viability assay, HL-60. Particulars: 72 h, read-out: IC50 (Mean ± SEM, µM), HL-60. The data set is classed as cell-based. On the procedure:
as §1, §4, §5

The test system of data set [7] is NB4 (Human acute promyelocytic leukemia cells). Nature of the data set: Resazurin cell viability assay, NB4. The note with it: 72 h, read-out: IC50 (Mean ± SEM, µM), NB4. It is filed as cell-based. The protocol:
as §1, §4, §5

For data set [8], the system named is SW480 (Human colon adenocarcinoma cells). Nature of the data set: Resazurin cell viability assay, SW480. It is filed as cell-based. Particulars: 72 h, read-out: IC50 (Mean ± SEM, µM), SW480. The protocol: as §1, §4, §5
Data set [9] relates to U2OS (Human osteosarcoma cells). Briefly: Resazurin cell viability assay, U2OS. The data set is classed as cell-based. Particulars: 72 h, read-out: IC50 (Mean ± SEM, µM), U2OS. The protocol: as §1, §4, §5
Data set [10] deals with A549 human lung cancer cell line and MRC-5 human lung normal cell line. Also on record: method as in PMID 24177365. The note with it: MTT assay; cited from earlier work. In general terms: Formazan colour is commonly taken as a measure of viable cells.

As to `Cc1ccc(S(=O)(=O)N2CC2(C)CO[C@@H]2O[C@@H]3CO[C@H](c4ccccc4)O[C@@H]3[C@H](OCc3ccccc3)[C@H]2OCc2ccccc2)cc1` (stereo partly drawn) [AzGalp, 2-methyl-2,3-[N-(4-methylbenzenesulfonyl)imino]propyl 2,3-di-O-benzyl-4,6-O-(S)-benzylidene-β-D-galactopyranoside], the IC50 came to 38.6 ± 6.3 µM in [1]; 411 ± 39.4 µM in data set [4]; 191 ± 35.8 µM in data set [5]; 11.1 ± 0.9 µM in data set [6]; 21.4 ± 9.9 µM in [7]; 388 ± 30.9 µM in [8]. Moreover, the half-maximal inhibitory concentration (IC50) in [9] amounted to 120 ± 8 µM. Also, the “Level of DNA damage in comet assay” value in data set [2] (50 µM AzGalp versus 10 µM CPT) is reported as “lower than that of the DNA-damaging agent CPT”. The “Cells with higher levels of DNA damage than untreated cells” value in data set [2] (50 µM) was “approximately 30%”. Moreover, the “Cytotoxicity of combination with 5-FU, cancer cells” value in [3] (100 μM AzGalp + 10 μM 5-FU) is recorded as “killed more cancer cells than when these drugs were administered individually”. Besides, in data set [3] (100 μM AzGalp + 10 μM oxaliplatin), the “Cytotoxicity of combination with oxaliplatin, cancer cells” value is on record as “killed more cancer cells than when these drugs were administered individually”. Besides, in [10], the “Cytotoxicity against A549 lung cancer cells relative to MRC-5 lung normal cells” value is reported as “approximately six times more cytotoxic”.

Broadly, the IC50 is the concentration at which inhibition is half-maximal.
